Assay results from patent US20260234553A1, “COMPOSITIONS COMPRISING SUPRAMOLECULAR ASSEMBLIES OF PEPTIDE AMPHIPHILES AND ORGANIC CATIONS AND METHODS OF USE THEREOF” (Northwestern University, priority 2023, published 2026).
“And” between values parts separate entries of the source, which are not always exact repeats. Identical values can stand only once. *: point of attachment. Palmitoyl = CCCCCCCCCCCCCCCC(=O)*

Assays:
PA nanostructures = assay: 1H DOSY NMR of OC free and with PA; type: binding
Method: Binding of organic cations (OCs) to PA. Initial screening of interactions of five different OCs with PA was performed using ^1H NMR spectroscopy in solution (FIG. 53). Here, ^1H signals lineshape from the ^1H NMR spectra of OCs were compared and analyzed against the corresponding ^1H signals from OC-PA samples. It is expected that ^1H signals will experience broadening if binding is occurring. In all cases we observed significant broadening except for tetramethylammonium (OC4), indicating its poor binding to PA nanostructures. ^1H DOSY NMR measurements. Spectra were measured by monitoring the change in intensity of the corresponding resonances as a function of the field gradient strength g (G/cm). A 2D sequence was used for diffusion measurement based on stimulated echo and LED which applies bipolar gradient pulses for diffusion (2 spoil gradients) together with water presaturation during relaxation delay (ledbpgppr2s Bruker sequence). ^1H DOSY data were first processed in Topspin (Fourier transformation, phasing, and baseline correction) and then the peak intensities of the corresponding resonances were extracted and fitted to the Stejskal-Tanner equation (Eq. 1) to give the value of diffusion coefficient D (m^2/s). Solution ^1H DOSY NMR data were fit to Eq. 1 using NMRTools.jl{, #28110}. ^1H HRMAS DOSY NMR data were fit using the Eq. 1 using Dynamics Center 2.6.3 software.
In the Eq. 1, I and I0 are the signal intensities in the presence and absence of gradient pulses, respectively; γ is the gyromagnetic ratio; g and δ are the gradient strength and their duration, respectively; σ=0.9, is the shape factor for the SMSQ gradient used in the experiment; Δ is the time separation between the edges of the gradient pulses.

CA1 pyramidal neurons = assay: Whole-cell current clamp recordings in organotypic hippocampal slice cultures on PA or ICN layers; type: cell-based, rat; design: Rheobase: unit not given beside the values
Method: To physiologically dissect the unique responses activated by Na^+-ICN vs. K^+-ICN, we explored the effect of ICNs on the stability of the hippocampal network. This well-established ex vivo model allows for the ability to reliably acquire electrophysiological data using organotypic hippocampal slice cultures from neonatal rats. A PA or ICN layer was prepared on top of Millicell® cell culture inserts, inserted hippocampal organotypic slices (including the entorhinal cortex), and measured multiple electrophysiological parameters from CA1 pyramidal neurons at 6, 10, and 14 DIV using whole-cell current clamp recordings (FIG. 5A). Given the known heterogeneity of the hippocampus, the CA1 pyramidal neuron excitability was measured in the dorsal area.
All experiments were carried out according to the European and institutional guidelines for the care and use of laboratory animals (Council Directive 86/609/EEC and French National Research Council) and approved by the local health authority (Préfecture des Bouches-du-Rhône, Marseille). Young wild type Wistar rats (P5-P10), of either sex, were used to prepare organotypic hippocampal slice cultures. Animals were deeply anesthetized with isoflurane (5%) and killed by decapitation. The brain was removed and both hippocampi were individually dissected. Hippocampal slices (300 μm) were cut using a Vibratome (Leica, VT1200S, Wetzlar, Germany) in a sucrose based cutting solution kept at 3-4° C. containing for 1L: ultrapure water (988.5 mL), sucrose (97 g), NaHCO3 (2.18 g), D-glucose (1.8 g), KCl (0.1 g), CaCl2 1M (1 mL), MgCl2 1M (10 mL). Kynurenic acid and penicillin/streptomycin were added to the solution just before cutting to control cellular electrical activity and avoid contamination during slices preparation respectively. Only dorsal hippocampal slices were collected and placed on 20 mm latex membranes (Millicell, Millipore) inserted into 35 mm Petri dishes containing 1 mL of culture medium and maintained in an incubator at 34° C., 95% 02-5% CO2. The culture medium contained 25 mL MEM, 1.25 mL HBSS, 12.5 mL horse serum, 0.5 mL penicillin/streptomycin, 0.8 mL glucose (1 M), 0.1 mL ascorbic acid (1 mg/mL), 0.4 mL Hepes (1 M), 0.5 mL B27, and 8.95 mL sterile H2O. At least 1 h before collecting the slices, PAs control, OC-PA KCl or OC-PA NaCl were painted on the external surface of the latex membranes by dragging a pipette (50 μL of annealed PAs control or OC-PAs) to extrude a thin coat of material and let organotypic slice cultures grow on it. The culture medium was changed regularly (every 3 days). Organotypic hippocampal slice cultures were used at 6, 10 and 14 DIV to perform electrophysiological recordings and at 10 DIV to perform immunostainings.
To perform electrophysiological recordings, the Millicell membrane containing the slices treated with PAs or OC-PAs was cut with a scalpel and transferred to a recording chamber perfused with oxygenated artificial cerebrospinal fluid (aCSF). This solution was maintained at 31° C. and contained: 125 mM NaCl, 26 mM NaHCO3, 3 mM CaCl2, 2.5 mM KCl, 2 mM MgCl2, 0.8 mM NaH2PO4, 10 mM D-glucose. It was finally equilibrated with 95% O2-5% CO2. Neurons were visualized under an upright microscope (Olympus BX50WI) in phase contrast by infrared video-microscopy using a 60× immersion objective. Whole-cell patch-clamp recordings were obtained from CA1 pyramidal neurons in dorsal hippocampal organotypic cultures at DIV6,10 and 14. Patch-clamp pipettes (7-9 MΩ) were filled with a solution containing (mM): K-gluconate 120, KCl 20, HEPES 10, EGTA 0, MgCl2 2, Na2ATP 2, and NaGTP 0.3 (pH 7.4). CA1 pyramidal neurons were recorded in whole cell current clamp with a MultiClamp 700B amplifier (Axon Instruments), digitalized at 20 kHz with Digidata 1440A (Molecular Devices), low pass filtered at 10 kHz, and acquired with Clampex software (Molecular Devices). For current-clamp recordings, pipette capacitance was compensated, and the bridge was balanced. […]

[1] = Anomalous small angle X-ray scattering (ASAXS) of Rb+ around PA and OC-PA; type: physicochemical
Text: An anomalous small angle X-ray scattering (ASAXS) was used to deduce the spatial distribution of Rb^+ surrounding charged, twisted peptide amphiphile (PA) bilayer. ASAXS relies on the measurements of the subtle changes in the X-ray energy-dependent scattered intensity profiles from the combined counterion (here, Rb^+)-supramolecular assembly system. These changes arise due to strong dispersion corrections [f′(E), f″(E)] to the form factor (scattering/absorption power) of an atom or an ion when the X-ray energy E is close to the binding energy of a core-shell electron in the atom or the ion [(here, Rb^+ K-edge EK=15.2 keV.
Scattered intensity profiles were measured from 1 mM PA in solutions containing either 66 mM RbCl or 50 mM RbCl and 16 mM OC—Cl at 4 X-ray energies below the Rb^+ K edge (Table 8). The non-resonant
The block height h=1 nm is empirically selected for two reasons. First, no artifacts are introduced by this artificial construct in the simulated scattered intensities over the relevant ASAXS q range of 0.05-2 nm^−1 (FIG. 42). Second, this choice keeps the simulations relatively fast. The distribution of Rb^+ is assumed to follow the shape of each parallelepiped block (FIG. 43C), and consists of the condensed Rb^+ layer, which is associated with the 2 ionizable amino acid groups in the outer periphery of the PA bilayer, followed by 12 layers with exponentially decaying Rb^+ concentration. The total number of Rb^+ associated is equal to the parallelepiped charge, which is calculated based on estimates of the area/molecule/leaflet (At=0.5 nm^2) from molecular dynamics (MD) simulations and a fit parameter for the fraction of amino acids that are in the ionized state (a). Based on this model the orientationally averaged non-resonant intensity and the cross-term are calculated and compared to the data in FIG. 42. […]
The SAXS profiles in FIG. 42 were analyzed using the discretized model in FIG. 43. […] The best-fit was then selected based on manual calculations of the differences between the measured and simulated profiles. […]

Compound | diffusion constant D (PA nanostructures; 160.0 mM EMIMCl in PBS pH 7.4, free organic cation) | diffusion constant D (PA nanostructures; 160.0 mM EMIMCl in PBS pH 7.4 in the presence of 10.0 mM PA) | diffusion constant Db (slow diffusing) (PA nanostructures; HRMAS DOSY, pelleted OC-PA) | diffusion constant Df (fast diffusing) (PA nanostructures; HRMAS DOSY, pelleted OC-PA) | rheobase, representative traces (CA1 pyramidal neurons; 6 DIV) | rheobase, representative traces (CA1 pyramidal neurons; 10 DIV) | rheobase, representative traces (CA1 pyramidal neurons; 14 DIV) [pA] | Rheobase (CA1 pyramidal neurons; 6 days in vitro) | Spikes evoked at 240 pA (CA1 pyramidal neurons; 6 days in vitro) | Rheobase (CA1 pyramidal neurons; 10 days in vitro) | Spikes evoked at 240 pA (CA1 pyramidal neurons; 10 days in vitro) | Rheobase (CA1 pyramidal neurons; 14 days in vitro) | Spikes evoked at 240 pA (CA1 pyramidal neurons; 14 days in vitro) | Rb^+ concentration near headgroups over bulk Rb^+ concentration ([1]; 1 mM PA in 66 mM RbCl) | degree of ionization a ([1]; 1 mM PA in 66 mM RbCl) | fraction charged (simulated intensities fitted to ASAXS) ([1]; Rb^+ counterions) [%]
CCn1cc[n+](C)c1.[Cl-] [OC, 1-ethyl-3-methyl imidazolium chloride] | (1.179±0.002)·10^−9 m^2s^−1 | (2.900±0.023)·10^−10 m^2s^−1 | (3.326±0.004)·10^−12 m^2s^−1 | (1.630±0.001)·10^−10 m^2s^−1 | – | – | – | – | – | – | – | – | – | – | – | –
C16-VVAAEE (Palmitoyl-VVAAEE-NH2) [peptide amphiphile monomer, C16=palmitoyl, assembles into one-dimensional nanostructures] | – | – | – | – | 90 pA and 80 pA | 140 pA and 130 pA | 130 | 95.7 ± 5.6 and 86 ± 4.7 | 16.4 ± 1.1 and 16.2 ± 0.9 | 109.3 ± 4.8 and 121.8 ± 7.7 | 13.2 ± 0.7 and 12.8 ± 0.9 | 127 ± 4.4 and 131 ± 5.4 | 11.1 ± 0.5 and 10.3 ± 0.9 | ~ 40 × | 0.5 | 50
